This data set in a line: in vitro. The following applies: human, hela cells, % viability.

As to `CC(C)NC(=O)C[C@@H]1c2nc(-c3ccccc3)sc2C[C@@H]2[C@](C)(CO)[C@H](O)CC[C@]21C` [CBK289570], the viability at 28.5 h, 10 µM is 90.6%.

For the molecule `CCOC(=O)c1cccnc1-c1ccc(OC)c(OC)c1` [CBK149240], the viability at 28.5 h, 10 µM came out at 94.2%.

As for `CC(=O)N1CCC(c2cc(-c3cccc(F)c3)n(C)n2)CC1` [CBK282097], the viability at 28.5 h, 10 µM was found to be 101%.

Take `O=C(Nc1ccc2oc(-c3cccnc3)nc2c1)c1ccc(-c2cccc([N+](=O)[O-])c2)o1` [CBK262945]: the viability at 28.5 h, 10 µM stood at 106%.

With `COc1ccc(-c2cn3cccnc3n2)cc1NC(=O)c1ccccc1` [CBK287296], the viability at 28.5 h, 10 µM was determined as 73.8%.

With `CN1CCC(OCCCn2ccnc2-c2nccn2C)CC1` [CBK307683], the viability at 28.5 h, 10 µM stood at 96.2%.

With `O=C(NC1CCN(CC(F)(F)F)C1=O)c1ccnc(C2CC2)n1` (stereo not drawn) [CBK306268], the viability at 28.5 h, 10 µM amounted to 97%.

Regarding `CCN(CC)C(=O)CN(CCc1ccc(OC)c(OC)c1)C(=O)NCc1ccc(Cl)cc1` [CBK158742], the viability at 28.5 h, 10 µM stood at 110%.

In the case of `CCCC/C=C/c1cnc(N)c(-c2ccc(N3CCOCC3)cc2)n1` [CBK063891], the viability at 28.5 h, 10 µM was determined as 101%.

Consider `O=C(O)c1ccc(Sc2ccc(S(=O)(=O)c3ccc(C(=O)O)c(C(=O)O)c3)cc2)cc1` [CBK261253], for which the viability at 28.5 h, 10 µM was 106%.

Regarding `CC(NC(=O)COc1ccc(Br)cc1)C(=O)O` (stereo not drawn) [CBK262083], the viability at 28.5 h, 10 µM came out at 87.4%.

For `Cc1cccnc1Nc1nc(-c2sc(N)nc2C)cs1` [CBK267147], the viability at 28.5 h, 10 µM was 90.3%.

For `Nc1nc(COn2c(-c3ccccc3)nc3ccccc3c2=O)nc(-c2ccccc2O)n1` [CBK266689], the viability at 28.5 h, 10 µM was found to be 98.6%.

In the case of `COc1cc(OC)cc(C(=O)Nc2cc(C)c3c(=O)oc4ccccc4c3n2)c1` [CBK291221], the viability at 28.5 h, 10 µM stood at 95.2%.

Turning to `CCc1nc2sc(C(N)=O)c(N)c2c2c1CCCC2` [CBK131872], the viability at 28.5 h, 10 µM worked out at 101%.

Regarding `Cc1cc(C)nc(N2CCN(CCC(=O)O)CC2)n1` [CBK287272], the viability at 28.5 h, 10 µM was found to be 97%.

Regarding `CC(=O)Oc1ccc(NC(=O)C2CC(Cl)=CCC2C(=O)O)cc1C(=O)O` (stereo not drawn) [CBK265372], the viability at 28.5 h, 10 µM came to 100%.

`CCc1cc(OCCCSc2nc(C)cc(O)n2)ccc1Cl` [CBK267364]: the viability at 28.5 h, 10 µM was found to be 106%.

As to `Cc1ccc(C)c(N2CCN(S(=O)(=O)c3ccc(-c4ccccc4)cc3)CC2)c1` [CBK100692], the viability at 28.5 h, 10 µM came to 104%.

Regarding `O=C(O)COc1ccc(Br)cc1/C=N/Nc1ccccn1` [CBK262369], the viability at 28.5 h, 10 µM came out at 102%.

As to `CC(NC(=O)c1ccccc1)C(=O)OCn1nnc2ccccc2c1=O` (stereo not drawn) [CBK297001], the viability at 28.5 h, 10 µM was found to be 92%.

On to `O=C(c1csc2c1CCCC2)N1CCC(O)(c2ccccn2)CC1` [CBK282397], for which the viability at 28.5 h, 10 µM worked out at 107%.

For the molecule `CCc1ccc2c(COC(=O)c3cccnc3SC)cc(=O)oc2c1` [CBK297486], the viability at 28.5 h, 10 µM is 85%.

Take `O=C(NCCC1=CCCCC1)Nc1ccc2ccccc2c1` [CBK044195]: the viability at 28.5 h, 10 µM was determined as 104%.

With `CC(C)C1c2cccn2CCN1S(=O)(=O)c1ccc2[nH]c(=O)[nH]c(=O)c2c1` (stereo not drawn) [CBK286391], the viability at 28.5 h, 10 µM worked out at 99.6%.

`O=C(O)c1nnn(-c2ccccc2)c1-c1ccncc1` [CBK288041]: the viability at 28.5 h, 10 µM amounted to 95.1%.

Consider `CN(C)c1cccc(-c2ccc(Nc3ccc(N4CCOCC4)cc3)nc2)c1` [CBK037735], for which the viability at 28.5 h, 10 µM was 92.2%.

On to `Cc1cc(C[C@@H]2COC[C@H]2NCc2ccccc2C(F)(F)F)on1` [CBK285464], for which the viability at 28.5 h, 10 µM was found to be 100%.

As to `O=C(CSc1ccc(Cl)cc1)NNC(=O)c1cccc([N+](=O)[O-])c1` [CBK268384], the viability at 28.5 h, 10 µM stood at 93.5%.

As to `c1ccc(COc2ccccc2-c2cc(Nc3ccc4[nH]ccc4c3)ncn2)cc1` [CBK090856], the viability at 28.5 h, 10 µM is 107%.

`CC1CCc2nn(CCNC(=O)Cc3ccc(F)cc3)c(=O)cc2C1` (stereo not drawn) [CBK284485]: the viability at 28.5 h, 10 µM is 92.5%.

As to `CN(C)c1cccc(Nc2ccc(-c3cccc(C(=O)O)c3)cn2)c1` [CBK036879], the viability at 28.5 h, 10 µM is 101%.

Consider `O=C(NC(=S)Nc1ccc(-c2nc3ccccc3o2)c(O)c1)c1cncc(Br)c1` [CBK264931], for which the viability at 28.5 h, 10 µM stood at 97%.

As to `CNCC1CCN(C(=O)c2ccc(Oc3cccnc3)cc2)C1` (stereo not drawn) [CBK304697], the viability at 28.5 h, 10 µM was determined as 91.5%.

Regarding `NC(=O)CN1CCC(Oc2nccnc2OCc2ccc(Cl)c(Cl)c2)CC1` [CBK083110], the viability at 28.5 h, 10 µM is 104%.

For `CCNC(=S)N[C@@H]1CC[C@@]2(Cc3ccc(OC)c(OC)c3)CCN(C)[C@H]2C1` [CBK023811], the viability at 28.5 h, 10 µM was 94.5%.

Take `N#Cc1c(C(F)(F)F)cc(-c2ccccc2)nc1SCCC(=O)Nc1ccccc1O` [CBK268191]: the viability at 28.5 h, 10 µM came out at 103%.

Consider `O=C(CCC(F)(F)F)NCc1csc(-c2ccccc2)n1` [CBK092342], for which the viability at 28.5 h, 10 µM is 91%.

For `Cc1nc(C)n(CC2CCCN(Cc3nc4ccccc4o3)C2)n1` (stereo not drawn) [CBK305828], the viability at 28.5 h, 10 µM is 95.3%.

As for `COc1cccc2cc(C(=O)C3=C(O)C(=O)N(CCCN4CCOCC4)C3c3ccc(C)cc3)oc12` (stereo not drawn) [CBK266420], the viability at 28.5 h, 10 µM is 106%.

`O=C(Nc1ccc(I)cc1C(=O)Nc1cccnc1)c1ccccc1Cl` [CBK266154]: the viability at 28.5 h, 10 µM was 98.5%.

As to `Cn1c(SCC(=O)NC(c2ccccc2)c2ccccc2)nnc1-c1ccncc1` [CBK266622], the viability at 28.5 h, 10 µM is 97.8%.

Consider `O=C(O)CNS(=O)(=O)c1ccc2ccccc2c1` [CBK034460], for which the viability at 28.5 h, 10 µM was found to be 94.1%.

Turning to `CN(C)c1ccc(-c2noc([C@@H]3CCCN3C3CCOCC3)n2)cn1` [CBK288903], the viability at 28.5 h, 10 µM turned out to be 93.8%.

In the case of `O=C(COC(=O)c1ccccc1NC(=O)c1ccccc1)c1ccc2ccccc2c1` [CBK265491], the viability at 28.5 h, 10 µM worked out at 94.9%.

For `CC(NC(=O)N1CCCN(Cc2cccs2)CC1)c1nncn1C` (stereo not drawn) [CBK305322], the viability at 28.5 h, 10 µM came out at 80.3%.

Take `O=C(NCCCc1ccccn1)c1cc(C2CCCCC2)no1` [CBK283296]: the viability at 28.5 h, 10 µM came out at 89.4%.

Turning to `COc1ccc(-c2cnn(-c3ccc(OC)cc3)n2)cc1` [CBK112745], the viability at 28.5 h, 10 µM worked out at 106%.

As to `CCC(NS(=O)(=O)c1cnc2c(c1)c(C)nn2C)C(O)C(F)(F)F` (stereo not drawn) [CBK306264], the viability at 28.5 h, 10 µM is 86.5%.

With `CS(=O)(=O)c1ccc(CNC(=O)c2ccccc2-n2cccc2)cc1` [CBK149612], the viability at 28.5 h, 10 µM stood at 94.2%.

Take `COc1ccc(/C=N/NC(=O)c2cc[nH]n2)cc1CSc1nc2ccccc2s1` [CBK263734]: the viability at 28.5 h, 10 µM was found to be 103%.

On to `O=C(c1ccccc1Nc1cccc(C(F)(F)F)c1)N1CCN(c2ccccn2)CC1` [CBK012634], for which the viability at 28.5 h, 10 µM was 94.4%.

In the case of `COc1ccc2c(c1)COC1(CCN(C(=O)NC3CCCCC3)CC1)O2` [CBK060755], for the setting “bulk resorufin, single well”, the viability at 28.5 h, 10 µM was 111%.

With `O=C(NCCn1nc(-c2cccs2)ccc1=O)C1CCCC1` [CBK283840], the viability at 28.5 h, 10 µM was determined as 104%.

Consider `CN(C)CCSc1cncc(N2CCCC2)n1` [CBK105294], for which the viability at 28.5 h, 10 µM was determined as 104%.

For `CCCCCOc1ccc(Nc2cc(-c3ccco3)ncn2)cc1` [CBK090892], the viability at 28.5 h, 10 µM turned out to be 92.6%.

`CCn1cc(S(=O)(=O)N2CCC3(CC2)OCCO3)cn1` [CBK270321]: the viability at 28.5 h, 10 µM is 112%.

With `c1ccc2c3c([nH]c2c1)C12CCN(CC1)C(C1CCOC1)N2CC3` (stereo not drawn) [CBK284433], the viability at 28.5 h, 10 µM is 88.2%.

For `COc1ccc([C@H](NC(=O)C2CCN(C(=O)OCc3ccccc3)CC2)c2ccccc2C)cn1` [CBK084639], the viability at 28.5 h, 10 µM was determined as 92.9%.

In the case of `O=C(Nc1ccc(N2CCNCC2)nc1)C1(c2ccccc2)CCCCC1` [CBK028269T], the viability at 28.5 h, 10 µM was determined as 97.8%.

In the case of `Cc1ccc(S(=O)(=O)NC(=O)NCCCCNC(=O)NS(=O)(=O)c2ccc(C)cc2)cc1` [CBK296078], the viability at 28.5 h, 10 µM came out at 102%.

In the case of `C=CCN1CCC2(CC1)CN(C(C)=O)Cc1cc(C)ccc1O2` [CBK282693], the viability at 28.5 h, 10 µM was determined as 97.5%.

With `O=C(COc1cccc2ccccc12)NNC(=O)C1CCCO1` (stereo not drawn) [CBK263007], the viability at 28.5 h, 10 µM amounted to 89.7%.

On to `CC(C)c1ncc(CN2CCC(CC(=O)N3CCN(c4ccccc4)CC3)CC2)cn1` [CBK286048], for which the viability at 28.5 h, 10 µM is 101%.

Turning to `CC1(C)Cc2c(c(-c3ccco3)nc3n[nH]c(N)c23)CO1` [CBK009252], the viability at 28.5 h, 10 µM came to 84.3%.

As for `NC(=O)[C@H]1C[C@@H](O)[C@H](O)[C@H]2[C@@H]1S/C(=N\c1ccc(Cl)cc1)N2Cc1ccccc1` [CBK288940], the viability at 28.5 h, 10 µM came to 94.9%.

For the molecule `CCOC(=O)N1CCN(Cc2ccc(OCc3cccnc3)cc2)CC1` [CBK305883], the viability at 28.5 h, 10 µM was 79.1%.

As to `Cc1ccc2[nH]c3c(c2c1)CCNC31CCN(C(=O)[C@@H]2CCCC[C@@H]2C(=O)O)CC1` [CBK047222], the viability at 28.5 h, 10 µM was 89.9%.

Consider `COCCC(=O)NCc1ccc(OC2CCNCC2)cc1` [CBK024494T], for which the viability at 28.5 h, 10 µM was determined as 98.6%.

`Cc1cc(NC(=O)C(C)OC(=O)C(NC(=O)OC(C)(C)C)c2ccccc2)no1` (stereo not drawn) [CBK170398]: the viability at 28.5 h, 10 µM was 100%.

In the case of `O=C(Cc1cc(F)c(F)c(F)c1)Nc1ccc2ncccc2c1` [CBK159811], the viability at 28.5 h, 10 µM worked out at 93%.

`CCN1C(=O)CC2(C1=O)C(=O)N(CCCOc1ccc(Cl)cc1)c1ccc(C)cc12` (stereo not drawn) [CBK075648]: the viability at 28.5 h, 10 µM came out at 109%.

Take `c1ccc2nc(N3CCCC3)c(Sc3nc[nH]n3)nc2c1` [CBK115265]: the viability at 28.5 h, 10 µM stood at 90.9%.

In the case of `O=C(/C=N/O)Nc1cc(C(F)(F)F)ccc1Cl` [CBK288405], the viability at 28.5 h, 10 µM was found to be 107%.

For the molecule `CCC(Sc1nccn1C)C(=O)Nc1ccc(S(N)(=O)=O)cc1` (stereo not drawn) [CBK058413], the viability at 28.5 h, 10 µM is 107%.

As to `COC(=O)[C@@H](C)NC(=O)[C@H]1CN(C(=O)c2cccnc2)CCN1C(=O)NC(C)C` [CBK289630], the viability at 28.5 h, 10 µM worked out at 104%.

For the molecule `CC1CN(C(=S)Nc2ccc(NC(=S)N3CC(C)OC(C)C3)cc2)CC(C)O1` (stereo not drawn) [CBK004991], the viability at 28.5 h, 10 µM was 78.9%.

Consider `O=C(N[C@@H]1CNCCC[C@H]1O)c1ccc(OCCN2CCCC2)cc1` [CBK289070], for which the viability at 28.5 h, 10 µM came to 101%.

One may read the viability as a read-out of living cells in per cent, often relative to untreated cells.

For the origin of these results see PMC12040169 (PLOS Biology, 2025).
